These results are taken from US20250145566A1, “PHENETHYLAMINE DERIVATIVES, COMPOSITIONS, AND METHODS OF USE” (Cybin IRL Limited, priority 2022, published 2025).

In data set [1] the target is T1, MAO-B (Homo sapiens, UniProt P27338).
T1 construct: purchased Corning 456284
T1 sequence (P27338 1-520): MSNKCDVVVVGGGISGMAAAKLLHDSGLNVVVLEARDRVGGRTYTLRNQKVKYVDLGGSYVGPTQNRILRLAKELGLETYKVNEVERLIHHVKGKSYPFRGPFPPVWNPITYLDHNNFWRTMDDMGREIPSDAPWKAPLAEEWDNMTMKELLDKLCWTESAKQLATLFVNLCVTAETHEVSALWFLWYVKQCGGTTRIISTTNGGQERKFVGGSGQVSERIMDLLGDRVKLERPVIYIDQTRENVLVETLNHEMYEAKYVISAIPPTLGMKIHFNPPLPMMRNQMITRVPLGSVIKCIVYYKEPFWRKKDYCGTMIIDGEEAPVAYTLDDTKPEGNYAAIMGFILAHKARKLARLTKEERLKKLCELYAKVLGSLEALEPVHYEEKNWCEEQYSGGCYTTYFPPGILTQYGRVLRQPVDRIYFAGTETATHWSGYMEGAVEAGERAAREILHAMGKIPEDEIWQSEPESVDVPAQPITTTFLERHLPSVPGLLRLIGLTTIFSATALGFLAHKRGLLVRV
Briefly: human MAO-B in vitro metabolism. The note with it: human MAO-B enzyme (Corning), test compound 1 μM, read-out: MAO-B t1/2. In kind it is in vitro ADME. How it is done:
(§1) In a different series of reactions using human MAO-A and MAO-B, a 10 mM stock solution of the test compound was prepared in DMSO. From this stock solution, an intermediate stock solution of 1 mM was prepared by diluting the compound in DMSO and from this intermediate stock solution, a working solution of 0.30 mM was prepared by diluting the compound in ACN:Water (50:50) as cocktail of 2 compounds (30 μL each compound in 40 μL diluent for 100 μL). Following this, a master mix of 0.1 M potassium phosphate buffer and test compound mixture i.e., the non-deuterated and the deuterated analog, were prepared to achieve final drug concentration of 1 μM (0.2% DMSO) for the required number of reactions. The aforementioned master mix was pre-incubated at 37° C. for 5 min. To this master mix, MAO-A (final protein conc. 0.1 mg/mL; Corning Cat #456283; Lot #1173003) or MAO-B (final protein conc. 0.1 mg/mL; Corning Cat #456284; Lot #0318001) was added to initiate the reaction. The samples were then incubated at 37° C. for the desired time points. At each time point (0, 5, 15, 30, 45, 60), 40 μL of the samples were withdrawn and reactions were stopped using 200 μL chilled ACN containing 0.1% formic acid and internal standard Carbamazepine (10 ng/mL). The samples were centrifuged, and the supernatant was analyzed by LC-MS/MS. The percent compound remaining at each time point was calculated with respect to that of the 0 min sample. The data were then analyzed to calculate half-life and intrinsic clearance (CLint). Blank samples were prepared using DMSO (without the test compound).

Data set [2] concerns the target T2, MAO-A (Homo sapiens, UniProt P21397).
T2 construct: purchased XenoTech (first series); Corning (second series) Corning 456283
T2 sequence (P21397 1-527): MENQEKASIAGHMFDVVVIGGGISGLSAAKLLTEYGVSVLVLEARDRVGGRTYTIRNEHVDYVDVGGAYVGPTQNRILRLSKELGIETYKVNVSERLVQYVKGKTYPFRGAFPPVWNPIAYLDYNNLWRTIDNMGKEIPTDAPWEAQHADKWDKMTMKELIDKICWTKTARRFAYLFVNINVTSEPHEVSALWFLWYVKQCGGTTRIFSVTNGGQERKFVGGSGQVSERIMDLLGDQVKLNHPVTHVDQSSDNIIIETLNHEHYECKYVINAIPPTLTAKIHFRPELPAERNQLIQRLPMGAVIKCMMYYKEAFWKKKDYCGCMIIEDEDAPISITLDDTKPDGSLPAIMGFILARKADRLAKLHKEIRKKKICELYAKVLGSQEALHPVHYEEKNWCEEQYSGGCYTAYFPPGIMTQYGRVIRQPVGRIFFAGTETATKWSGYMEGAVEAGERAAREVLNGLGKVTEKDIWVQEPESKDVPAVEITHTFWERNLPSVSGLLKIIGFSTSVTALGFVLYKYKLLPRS
Briefly: Recombinant human MAO-A in vitro metabolism. To be noted: human, recombinant human MAO-A. It is filed as in vitro ADME. How it is done:
Recombinant human MAO-A. hrMAO-A and MAO control were purchased from XenoTech. The reaction mixture was prepared as described in Table 11. The test compound was added into the reaction mixture at a final concentration of 1 μM. The positive control kynuramine (25 μM) was run simultaneously with the test compound in a separate reaction. The reaction mixture (without test compounds or kynuramine) was equilibrated in a shaking water bath at 37° C. for 5 minutes. The reaction was initiated by the addition of the test compound or kynuramine, and the mixture was incubated in a shaking water bath at 37° C. Aliquots (150 μL) of the test compound reaction mixture were withdrawn at 0, 5, 10, 20, 30, 60, and for some assays at 120 minutes. Aliquots (150 μL) of the positive control reaction mixture were withdrawn at 0 and 30 minutes. Test compound and kynuramine samples were immediately combined with 150 μL of ice-cold 100% acetonitrile containing 0.1% formic acid and internal standard (0.2 μM metoprolol) to terminate the reaction. The samples were then mixed and centrifuged to precipitate proteins. All samples were assayed by LC-MS/MS. The peak area response ratio (PARR) of analyte to internal standard at each time point was compared to the PARR at time 0 to determine the percent remaining at each time point. Half-lives were calculated using GraphPad software, fitting to a single-phase exponential decay equation.
as §1

The subject of data set [3] is Rat Liver Microsomes. Nature of the data set: Rat liver microsomes (RLM) in vitro metabolism. In kind it is in vitro ADME. To be noted: result in words. How it is done:
(§2) Rat Liver Microsomes (RLM). Male Sprague-Dawley rat liver microsomes were purchased from XenoTech. The reaction mixture, minus NADPH, was prepared as described in Table 10. The test compound was added into the reaction mixture at a final concentration of 1 μM. The control compound, testosterone, was run simultaneously with the test compound in a separate reaction. The reaction mixture (without cofactor) was equilibrated in a shaking water bath at 37° C. for 5 minutes. The reaction was initiated by the addition of the cofactor, and the mixture was incubated in a shaking water bath at 37° C. Aliquots (150 μL) were withdrawn at 0, 5, 10, 20, 30, 60, and for some assays at 120 minutes. Test compound and testosterone samples were immediately combined with 150 μL of ice-cold acetonitrile (ACN) containing 0.1% formic acid and internal standard to terminate the reaction. The samples were then mixed and centrifuged to precipitate proteins. All samples were assayed by LC-MS/MS using electrospray ionization. The peak area response ratio (PARR) of analyte to internal standard at each time point was compared to the PARR at time 0 to determine the percent remaining at each time point. Half-lives were calculated using GraphPad software, fitting to a single-phase exponential decay equation.
(§3) In a different series of reactions using RLM, a 10 mM stock solution of the test compound was prepared in DMSO. From this stock solution, an intermediate stock solution of 1 mM was prepared by diluting the compound in DMSO and from this intermediate stock solution, a working solution of 0.30 mM was prepared by diluting the compound in ACN:Water (50:50) as a cocktail of two compounds (i.e., 30 μL the non-deuterated and the deuterated compound in 40 μL diluent in 100 μL total volume). Following this, a master mix of rat liver microsomes (final concentration 0.5 mg/ml, Xenotech Cat #R1000; Lot #1610290) and 0.1 M potassium phosphate buffer was prepared and pre-incubated for 5 min at 37° C. The test compound mixture was then added to achieve a final test article concentration of 1 μM (for each analog if co-dosed; 0.2% DMSO); verapamil was used as a positive control. Subsequently, 10 mM NADPH prepared in 0.1 M potassium phosphate buffer was added (final concentration 1 mM) to initiate the reaction and samples were incubated at 37° C. for the desired time points (0, 5, 15, 30, 45, 60 min). At each time point, 40 μL of the samples were withdrawn and reactions were stopped using 200 μL chilled ACN containing 0.1% formic acid and internal standard carbamazepine (10 ng/mL). The samples were centrifuged, and the supernatant was analyzed by LC-MS/MS. The percent compound remaining at each time point was calculated with respect to that of the 0 min sample. The data were then analyzed to calculate half-life. Blank samples were prepared using DMSO (without the test compound).
For orientation: Liver microsomes are a subcellular fraction often used to study metabolism.

Data set [4] in a line: Rat liver microsomes (RLM) in vitro metabolism. In kind it is in vitro ADME. The note with it: Sprague-Dawley, pH 7.4; rat liver microsomes, test compound 1 μM; * = apparent NADPH independent reaction; read-out: RLM t1/2. As for the experimental part: as §2, §3
Data set [5] concerns the target Norepinephrine transporter (Homo sapiens, UniProt P23975). The note with it: read-out: Function NET IC50; literature, racemic; cited from earlier work.
Data set [6] deals with Dopamine transporter (Homo sapiens, UniProt Q01959). To be noted: variable numbers in the literature, racemic, cited from earlier work.
Dopamine transporter, sequence (Q01959 whole entry): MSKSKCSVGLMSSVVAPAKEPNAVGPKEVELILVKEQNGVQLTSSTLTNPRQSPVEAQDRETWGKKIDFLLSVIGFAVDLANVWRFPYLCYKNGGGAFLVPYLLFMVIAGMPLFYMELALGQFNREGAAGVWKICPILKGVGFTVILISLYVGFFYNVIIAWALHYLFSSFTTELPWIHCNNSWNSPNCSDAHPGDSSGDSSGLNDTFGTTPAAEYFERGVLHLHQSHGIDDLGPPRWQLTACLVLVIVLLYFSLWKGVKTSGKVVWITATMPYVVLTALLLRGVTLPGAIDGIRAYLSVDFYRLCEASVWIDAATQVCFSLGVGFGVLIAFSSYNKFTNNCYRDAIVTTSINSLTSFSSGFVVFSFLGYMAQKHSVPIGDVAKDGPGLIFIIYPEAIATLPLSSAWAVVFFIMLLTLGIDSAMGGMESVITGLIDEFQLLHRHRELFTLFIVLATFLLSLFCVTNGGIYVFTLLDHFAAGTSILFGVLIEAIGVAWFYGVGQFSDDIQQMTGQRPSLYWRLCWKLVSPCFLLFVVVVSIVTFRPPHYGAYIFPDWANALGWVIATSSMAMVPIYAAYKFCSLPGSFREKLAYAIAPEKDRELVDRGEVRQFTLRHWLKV
The target of data set [7] is T3, 5-HT2A (h) (Homo sapiens, UniProt P28223).
T3 construct: expressed in transfected cells; host or cells: HEK-293 cells
T3 sequence (P28223 whole entry): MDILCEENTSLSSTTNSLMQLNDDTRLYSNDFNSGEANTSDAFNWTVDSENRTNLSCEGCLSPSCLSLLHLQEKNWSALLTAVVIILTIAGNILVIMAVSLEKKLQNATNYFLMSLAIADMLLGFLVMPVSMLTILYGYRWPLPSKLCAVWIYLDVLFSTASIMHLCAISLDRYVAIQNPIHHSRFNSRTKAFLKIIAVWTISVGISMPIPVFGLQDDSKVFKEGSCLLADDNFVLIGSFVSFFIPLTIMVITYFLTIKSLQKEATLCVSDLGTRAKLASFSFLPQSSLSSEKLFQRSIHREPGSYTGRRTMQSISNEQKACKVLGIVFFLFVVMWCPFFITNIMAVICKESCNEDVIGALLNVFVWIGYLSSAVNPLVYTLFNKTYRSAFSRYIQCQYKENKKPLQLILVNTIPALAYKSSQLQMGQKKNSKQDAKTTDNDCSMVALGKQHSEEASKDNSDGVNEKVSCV
The note with it: literature, single enantiomers, cited from earlier work; for EC50: read-out: Function 5-HT2A EC50.

Data set [8] concerns the target T4, 5-HT2C (h) (Homo sapiens, UniProt P28335).
T4 construct: expressed in transfected cells; host or cells: HEK-293 cells
T4 sequence (P28335 33-458): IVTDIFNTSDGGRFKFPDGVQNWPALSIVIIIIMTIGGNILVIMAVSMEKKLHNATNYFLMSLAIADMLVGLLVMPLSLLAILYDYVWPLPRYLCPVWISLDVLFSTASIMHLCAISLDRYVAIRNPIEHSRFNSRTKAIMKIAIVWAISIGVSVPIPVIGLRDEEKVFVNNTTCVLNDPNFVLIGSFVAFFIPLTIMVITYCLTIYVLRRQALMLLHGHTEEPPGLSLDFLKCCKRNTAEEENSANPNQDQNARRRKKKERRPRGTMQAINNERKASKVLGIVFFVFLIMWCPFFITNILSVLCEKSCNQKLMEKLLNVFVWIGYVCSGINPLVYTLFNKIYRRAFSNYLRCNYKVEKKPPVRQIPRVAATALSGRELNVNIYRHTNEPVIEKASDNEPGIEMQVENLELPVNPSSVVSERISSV
The note with it: literature, single enantiomers; cited from earlier work.

For data set [9], the target named is T5, dopamine transporter (h) (Homo sapiens, UniProt Q01959).
T5 construct: expressed in transfected cells; host or cells: CHO cells
T5 sequence (Q01959 whole entry): as the sequence (Q01959 whole entry) above
Nature of the data set: dopamine transporter (h) binding, [3H]BTCP. To be noted: Hill coefficient; reference compound result.

Data set [10] addresses T3, 5-HT2A (h). Nature of the data set: 5-HT2A (h) agonist radioligand [125I](±)DOI binding. The note with it: Hill coefficient; reference compound result.
Data set [11] deals with T4, 5-HT2C (h). Nature of the data set: 5-HT2C (h) agonist radioligand [125I](±)DOI binding. The note with it: reference compound result. As for the experimental part:
(§4) Samples were then analyzed as described above.

Data set [12] deals with T6, 5-HT2B (h) (Homo sapiens, UniProt P41595).
T6 construct: expressed in transfected cells; host or cells: CHO cells
T6 sequence (P41595 whole entry): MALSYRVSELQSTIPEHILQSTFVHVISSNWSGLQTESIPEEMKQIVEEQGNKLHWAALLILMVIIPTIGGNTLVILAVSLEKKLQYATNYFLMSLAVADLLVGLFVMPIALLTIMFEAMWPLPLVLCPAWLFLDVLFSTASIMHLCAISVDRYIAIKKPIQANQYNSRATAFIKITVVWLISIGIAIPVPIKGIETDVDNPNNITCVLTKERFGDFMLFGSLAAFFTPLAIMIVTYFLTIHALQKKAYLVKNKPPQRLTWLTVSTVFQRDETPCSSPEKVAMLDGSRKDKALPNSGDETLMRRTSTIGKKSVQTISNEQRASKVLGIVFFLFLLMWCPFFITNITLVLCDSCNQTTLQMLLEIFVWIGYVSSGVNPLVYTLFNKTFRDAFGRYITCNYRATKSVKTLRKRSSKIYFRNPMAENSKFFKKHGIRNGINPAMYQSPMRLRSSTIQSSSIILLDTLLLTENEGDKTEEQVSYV
Briefly: 5-HT2B (h) agonist radioligand [125I](±)DOI binding. To be noted: reference compound result. How it is done:
as §4

In data set [13] the target is T7, 5-HT transporter (h) (Homo sapiens, UniProt P31645).
T7 construct: expressed in transfected cells; host or cells: CHO cells
T7 sequence (P31645 whole entry): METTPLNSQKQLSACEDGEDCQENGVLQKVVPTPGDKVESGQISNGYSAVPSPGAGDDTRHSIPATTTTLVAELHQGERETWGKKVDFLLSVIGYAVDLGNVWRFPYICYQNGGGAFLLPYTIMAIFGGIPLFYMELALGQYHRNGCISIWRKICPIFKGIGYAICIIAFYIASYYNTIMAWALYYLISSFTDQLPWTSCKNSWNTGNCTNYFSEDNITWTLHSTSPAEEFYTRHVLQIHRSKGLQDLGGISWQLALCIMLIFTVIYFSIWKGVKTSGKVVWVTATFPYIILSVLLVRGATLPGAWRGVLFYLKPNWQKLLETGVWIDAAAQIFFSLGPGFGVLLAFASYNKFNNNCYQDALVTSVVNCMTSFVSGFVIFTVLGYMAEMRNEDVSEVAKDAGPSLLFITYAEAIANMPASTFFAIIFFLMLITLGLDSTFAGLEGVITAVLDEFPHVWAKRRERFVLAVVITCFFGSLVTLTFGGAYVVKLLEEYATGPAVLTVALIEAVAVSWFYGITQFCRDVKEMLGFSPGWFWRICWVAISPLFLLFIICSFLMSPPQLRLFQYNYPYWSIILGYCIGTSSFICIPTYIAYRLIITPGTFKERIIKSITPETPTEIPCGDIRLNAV
Briefly: 5-HT transporter (h) binding, [3H]imipramine. To be noted: Hill coefficient; reference compound result.

Setting [14] is: 1 μM test compound, read-out: half-life, MAO-A metabolism.
Where [15] appears, read: human recombinant MAO-A, test compound 1 μM, read-out: MAO-A t1/2.
The mark [16] stands for this setting: agonist radioligand [125I](±)DOI.

Where two headings read alike, the source gives them in different places.

Norepinephrine transporter, sequence (P23975 whole entry): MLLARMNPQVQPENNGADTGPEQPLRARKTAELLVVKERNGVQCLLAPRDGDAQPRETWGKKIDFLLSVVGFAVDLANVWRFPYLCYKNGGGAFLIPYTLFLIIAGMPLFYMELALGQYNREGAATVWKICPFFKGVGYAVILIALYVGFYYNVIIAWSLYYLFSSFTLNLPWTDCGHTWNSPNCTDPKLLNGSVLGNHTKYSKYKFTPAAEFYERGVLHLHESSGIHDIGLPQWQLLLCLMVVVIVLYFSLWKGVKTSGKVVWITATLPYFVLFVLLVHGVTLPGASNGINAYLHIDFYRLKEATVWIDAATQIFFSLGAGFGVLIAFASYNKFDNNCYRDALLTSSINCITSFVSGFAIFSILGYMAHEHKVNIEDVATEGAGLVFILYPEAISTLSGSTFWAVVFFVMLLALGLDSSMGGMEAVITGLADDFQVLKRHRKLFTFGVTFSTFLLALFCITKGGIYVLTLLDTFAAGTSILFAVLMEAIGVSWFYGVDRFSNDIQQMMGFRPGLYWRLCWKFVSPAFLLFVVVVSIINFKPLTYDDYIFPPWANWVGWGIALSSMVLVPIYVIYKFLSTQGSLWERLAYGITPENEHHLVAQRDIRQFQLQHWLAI

For the compound `NCCc1ccc2c(c1)OCO2` [Reference Compound 5, 3,4-Methylenedioxyphenethylamine, reference compound], the half-life at 1 µM in data set [1] is 7.91 min; in [2] (setting [14]), at most 8 min; in [2] (setting [15]) it was 8.34 min; in data set [4], under 5 min. In data set [3], the “disappearance in RLM, NADPH dependence” value is on record as “NADPH-independent”.
`CC(N)Cc1ccc2c(c1)OCO2` (stereo not shown) [MDA, 3,4-methylenedioxyamphetamine]: the IC50 in data set [5] was about 300 nM; in [6] (read-out: Function DAT IC50, lower end of literature range), at least 890 nM; in data set [6] (read-out: Function DAT IC50, upper end of literature range), at most 21000 nM.
In the case of `CN[C@H](C)Cc1ccc2c(c1)OCO2` [R-MDMA], in data set [7], the “Function 5-HT2A EMAX” value is “EMAX = 21%” and the 50% effective concentration (EC50) was 3100 nM. The “Function 5-HT2C EMAX” value in [8] is recorded as “EMAX = 27%”.
As for `[2H]C1([2H])Oc2ccc(CCN)cc2O1` [II-11, 2-(benzo[d][1,3]dioxol-5-yl-2,2-d2)ethan-1-amine], the half-life at 1 µM in [1] was under 5 min; in [2] (setting [14]), at most 8 min; in data set [2] (setting [15]), 7.97 min; in data set [4], under 5 min. The “disappearance in RLM, NADPH dependence” value in [3] is listed as “NADPH-independent”.
As to `c1ccc2sc(C3(N4CCCCC4)CCCCC3)cc2c1` [BTCP, reference compound], the nH in data set [9] amounted to 1.0.
Consider `COc1cc(CC(C)N)c(OC)cc1I` (racemic) [(±)DOI], for which the nH is reported as 1.0 in data set [10], 0.9 in data set [11] (Hill coefficient) and 1.1 in [12] (Hill coefficient). The IC50 is 0.37 nM in [11] (setting [16]) and 3.8 nM in data set [12] (setting [16]). Besides, the inhibition constant (Ki) in [11] (setting [16]) was 0.33 nM; in data set [12] (setting [16]), 1.9 nM.
For `CN(C)CCCN1c2ccccc2CCc2ccccc21` [imipramine, reference compound], in data set [13], the nH was determined as 1.2.
Consider `CN[C@@H](C)Cc1ccc2c(c1)OCO2` [S-MDMA], for which, in data set [7], the “Function 5-HT2A EMAX” value was “EMAX = 9%” and the half-maximal effective concentration (EC50) is 10300 nM. The “Function 5-HT2C EMAX” value in data set [8] was “EMAX = 53%”.

As usually defined, the IC50 is the concentration that gives 50% inhibition. Usually EC50 stands for the concentration needed to bring the measured effect to its halfway point. A word on the Ki: it is a dissociation constant, usually derived from enzyme kinetics or from competition with a known ligand.
